This is an account of results in patent publication US12085575B2, “Compositions and methods for detecting proteinopathies” (BOARD OF SUPERVISORS OF LOUISIANA STATE UNIVERSITY AND …, priority 2011, dated 2024).

This assay concerns polyubiquitylated proteins. In words: UV-induced degradation of polyubiquitylated proteins in organotypic cerebellar brain slices. Type of assay: cell-based, mice. Conditions: Bafilomycin A1 18 hrs, UV 150 mJ. How it is done: Experiments were conducted to determine if UV would induce degradation of the ubiquitin-conjugated cellular proteins in A-T organotypic brain slices grown in culture, similar to the findings described herein for A-T cells (See FIGS. 8A-8B). Two-month-old mice were used irrespective of the gender. Cerebellar organotypic brain slices (400 μm thick) from three mice were obtained using a McIlwain tissue chopper (The Mickle Lab Eng. Co. Ltd). Slices from two A-T mice and three ATM+/− mice were pooled and randomly placed on Millicell culture plate inserts (Millipore, MA). Brain slices were then incubated for 1 day in OptiMem-based medium at 37° C. in a humidified atmosphere of 5% CO2 and 95% air. One day later, slices were treated with Bafilomycin A1 for 18 hrs. Slices were then exposed to UV (150 mJ)) or left untreated. After three hours, tissue lysates were prepared as described herein. Lysates were then analyzed by Western analysis using anti-ubiquitin antibody as described herein, and the results shown in FIG. 17A. Intensity of the total polyubiquitylated proteins and free ubiquitin was quantitated using BioRad Quantity One software. All control values (−UV and +Bafl) were normalized to 100%, and values for experimental treatments were expressed as percent variations over control to give the results shown in FIG. 17B. […]

Consider `CO/C1=C\C(C)=C\[C@@H](C)[C@@H](O)[C@@H](C)C/C(C)=C/C=C/[C@H](OC)[C@@H]([C@@H](C)[C@@H](O)[C@H](C)[C@@]2(O)C[C@@H](O)[C@H](C)[C@@H](C(C)C)O2)OC1=O` [Bafilomycin A1], for which, under “A-T brain slices”, the “UV-mediated degradation of polyubiquitylated proteins” value is reported as “failed to protect”. For the setting “ATM+/− brain slices”, the “UV-induced degradation of polyubiquitylated proteins” value is recorded as “markedly protected”.
